{"source": "patent US10851088B2", "about": "“Polymorphs and solid forms of a pyrimidinylamino-pyrazole compound, and methods of production” (Denali Therapeutics Inc., priority 2017, dated 2020)", "assay_type_in_all_cases": "physicochemical", "key": {"[1]": {"test": "Dynamic vapor sorption (DVS) hygroscopicity test", "settings": "for water uptake: at 80% RH at 25° C., DVS", "procedure": "To investigate the solid form stability as a function of humidity, Dynamic Vapor Sorption (DVS) isotherm plots of Form A, Form C, and Form D were collected at 25° C. between 0 and 95% relative humidity (RH) by the procedures of Example 8. […] DVS was measured via a SMS (Surface Measurement Systems) DVS Intrinsic. The relative humidity at 25° C. were calibrated against deliquescence points of LiCl, Mg(NO3)2 and KCl. [table]"}, "[2]": {"test": "24 hrs solubility in H2O at RT (HPLC of supernatant, XRPD of residual solids)", "procedure": "The solubility at 24 hrs of Forms A, C, and D was measured in water at RT. Form A, Form C, and Form D samples were suspended into H2O with dose concentration of 10 mg/mL. After slurrying the suspensions at RT for 24 hrs (1000 rpm), the supernatants were separated for HPLC solubility measurement and the residual solids were characterized by XRPD."}, "[3]": {"test": "Slurry competition experiments (thermodynamic stability of anhydrate forms)", "settings": "for thermodynamic stability, Form C versus Form D: slurry competition", "procedure": "Slurry competition experiments were performed to investigate the inter-conversion relationship between three anhydrates (Form A, C, and D). […] Slurry competition was first performed between Form A and C at RT and 50° C. Form C was obtained after slurrying for 40 hrs at RT or 2 hrs at 50° C. […] Therefore, slurry competition was further performed between Form C and D in various solvent systems. The solvent effect of H2O was discovered to be associated with the inter-conversion relationship between Form C and D, with form D forming under anhydrous conditions.\nTo understand the thermodynamic stability relationship between Form A and Form C, slurry competition experiments were performed at RT and 50° C. in different solvent systems, including acetone/n-heptane, methyl tert-butylether (MTBE)/heptane, and water. Form A was used to saturate the corresponding solvent before filtered to obtain a near-saturated solution. Equal amount of Form A and C samples were weighed and then mixed with the prepared near-saturated solution to form a new suspension, which was stirred magnetically (˜1000 rpm) at RT and 50° C. The XRPD patterns of remaining solids after slurry were measured. […] Form D was obtained via slurrying Form A in MTBE/n-heptane (1:4, v/v) at RT for 1 day, with the addition of Form D sample as seeds.\nTo further understand the thermodynamic stability relationship between Form C and Form D, slurry competition experiments were performed at RT and 70° C. in various solvent systems, including methyl tert-butylether/heptane, water, cyclohexane, and ethanol/isooctane. Equal amount of Form C and D samples were weighed and then mixed with the near-saturated solution of Form A in corresponding solvent to form a suspension, which was stirred magnetically (˜1000 rpm) at different temperatures. The XRPD patterns of remaining solids after slurry were measured. […] Water content in process solvents were monitored and controlled during the manufacturing of Form C or D samples. […] Water activity (or relative humidity) was monitored and controlled during the manufacture and storage of Form C or D samples."}, "[4]": {"test": "Approximate solubility in solvents, used to choose slurry solvent systems"}, "[5]": {"settings": "24 hrs slurry at 10 mg/mL dose concentration, HPLC"}}, "note": "Like-named read-outs stand apart in the source and are kept apart here."}
{"smiles": "CNc1nc(Nc2cn(C(C)(C)C#N)nc2C)ncc1C(F)(F)F", "note": "[Form A, 2-methyl-2-(3-methyl-4-(4-(methylamino)-5-(trifluoromethyl)pyrimidin-2-ylamino)-1H-pyrazol-1-yl)propanenitrile]", "values": [{"measurement": "water uptake", "setting": "[1]", "value": 0.04, "unit": "%"}, {"measurement": "form change after 24 hrs solubility evaluation (XRPD of residual solids)", "setting": "[2]", "value": "No form change"}, {"measurement": "solubility at 24 h", "setting": "[2]; water, thermodynamic from solid, 24 hrs slurry at 10 mg/mL dose concentration, HPLC", "value": 180, "unit": "µg/mL"}]}
{"smiles": "CNc1nc(Nc2cn(C(C)(C)C#N)nc2C)ncc1C(F)(F)F", "note": "[Form C, 2-methyl-2-(3-methyl-4-(4-(methylamino)-5-(trifluoromethyl)pyrimidin-2-ylamino)-1H-pyrazol-1-yl)propanenitrile]", "values": [{"measurement": "Hygroscopicity", "setting": "[1]; DVS at 25° C., 0 to 95% RH", "value": "slightly hygroscopic"}, {"measurement": "water uptake", "setting": "[1]", "value": 0.6, "unit": "%"}, {"measurement": "thermodynamic stability, Form A versus Form C", "setting": "[3]; slurry competition of equal amounts of Form A and C, RT and 50° C., various solvents", "value": "thermodynamically more stable than Form A"}, {"measurement": "thermodynamic stability, Form C versus Form D", "setting": "[3]; water activity aw≥0.5 at RT", "value": "more stable"}, {"measurement": "form change after 24 hrs solubility evaluation (XRPD of residual solids)", "setting": "[2]", "value": "No form change"}, {"measurement": "24 Hrs Solubility in H2O at RT", "setting": "[2]; [5]", "value": 140, "unit": "µg/mL"}]}
{"smiles": "CNc1nc(Nc2cn(C(C)(C)C#N)nc2C)ncc1C(F)(F)F", "note": "[Form D, 2-methyl-2-(3-methyl-4-(4-(methylamino)-5-(trifluoromethyl)pyrimidin-2-ylamino)-1H-pyrazol-1-yl)propanenitrile]", "values": [{"measurement": "water uptake", "setting": "[1]", "value": 0.05, "unit": "%"}, {"measurement": "thermodynamic stability, Form C versus Form D", "setting": "[3]; water activity aw≤0.2 at RT", "value": "thermodynamically more stable"}, {"measurement": "form change after 24 hrs solubility evaluation (XRPD of residual solids)", "setting": "[2]", "value": "No form change"}, {"measurement": "24 Hrs Solubility in H2O at RT", "setting": "[2]; [5]", "value": 110, "unit": "µg/mL"}]}
{"smiles": "CNc1nc(Nc2cn(C(C)(C)C#N)nc2C)ncc1C(F)(F)F", "note": "[Formula I compound, 2-methyl-2-(3-methyl-4-(4-(methylamino)-5-(trifluoromethyl)pyrimidin-2-ylamino)-1H-pyrazol-1-yl)propanenitrile]", "values": [{"measurement": "solubility", "setting": "[4]; H2O and non-polar solvents (e.g., n-heptane, cyclohexane), water, read-out: solubility in H2O and non-polar solvents", "value": "< 2000", "unit": "µg/mL"}, {"measurement": "solubility", "setting": "[4]; organic solvent or mixture, solvents other than H2O and non-polar solvents, read-out: solubility in other solvents", "value": "> 40000", "unit": "µg/mL"}]}
